# Assays:
# Experiment in all cases: relative viability (nuclei count vs DMSO), 5 days (fraction); higher = more cells survive
# GSK126 + Tozasertib = compound: CC[C@H](C)N1C=C(C2=C(C=C(C=C21)C3=CN=C(C=C3)N4CCNCC4)C(=O)NCC5=C(C=C(NC5=O)C)C)C [GSK126] + Cc1cc(Nc2cc(N3CCN(C)CC3)nc(Sc3ccc(NC(=O)C4CC4)cc3)n2)n[nH]1 [Tozasertib] (partner 0.1 µM)
# Summary of the method: (§1)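 Each reported value is a median over duplicate plates. It expresses relative viability: treated-well nuclei count divided by vehicle-well nuclei count. Lung cancer cell lines in 1536-well plates were dosed by pin tool a day after seeding, alone with one drug or with a fixed anchor-drug dose plus five library-drug doses (not always all listed) in √10 steps, and nuclei were counted after 5 days.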
# MLN4924 + Palbociclib = compound: NS(=O)(=O)OC[C@@H]1C[C@@H](n2ccc3c(N[C@H]4CCc5ccccc54)ncnc32)C[C@@H]1O [MLN4924] + CC(=O)c1c(C)c2cnc(Nc3ccc(N4CCNCC4)cn3)nc2n(C2CCCC2)c1=O [Palbociclib] (partner 0.5 µM)
# Summary of the method: as §1
# MLN4924 + Alpelisib = compound: NS(=O)(=O)OC[C@@H]1C[C@@H](n2ccc3c(N[C@H]4CCc5ccccc54)ncnc32)C[C@@H]1O [MLN4924] + Cc1nc(NC(=O)N2CCC[C@H]2C(N)=O)sc1-c1ccnc(C(C)(C)C(F)(F)F)c1 [Alpelisib] (partner 2 µM)
# Summary of the method: as §1
# MLN4924 + Decitabine = compound: NS(=O)(=O)OC[C@@H]1C[C@@H](n2ccc3c(N[C@H]4CCc5ccccc54)ncnc32)C[C@@H]1O [MLN4924] + Nc1ncn([C@H]2C[C@H](O)[C@@H](CO)O2)c(=O)n1 [Decitabine] (partner 2 µM)
# Summary of the method: as §1
cell line,measurement,setting,value
HCC-366,relative viability,GSK126 + Tozasertib; first compound 0.08 µM,0.193
same,relative viability,GSK126 + Tozasertib; first compound 0.253 µM,0.117
same,relative viability,GSK126 + Tozasertib; first compound 0.8 µM,0.123
same,relative viability,GSK126 + Tozasertib; first compound 2.53 µM,0.0783
same,relative viability,GSK126 + Tozasertib; first compound 8 µM,0.0929
same,relative viability,MLN4924 + Palbociclib; first compound 0.04 µM,0.389
same,relative viability,MLN4924 + Palbociclib; first compound 0.1265 µM,0.374
same,relative viability,MLN4924 + Palbociclib; first compound 0.4 µM,0.336
same,relative viability,MLN4924 + Palbociclib; first compound 1.265 µM,0.167
same,relative viability,MLN4924 + Palbociclib; first compound 4 µM,0.0328
same,relative viability,MLN4924 + Alpelisib; first compound 0.04 µM,0.58
same,relative viability,MLN4924 + Alpelisib; first compound 0.1265 µM,0.733
same,relative viability,MLN4924 + Alpelisib; first compound 0.4 µM,0.877
same,relative viability,MLN4924 + Alpelisib; first compound 1.265 µM,0.369
same,relative viability,MLN4924 + Alpelisib; first compound 4 µM,0.027
same,relative viability,MLN4924 + Decitabine; first compound 0.04 µM,0.335
same,relative viability,MLN4924 + Decitabine; first compound 0.1265 µM,0.338
same,relative viability,MLN4924 + Decitabine; first compound 0.4 µM,0.279
same,relative viability,MLN4924 + Decitabine; first compound 1.265 µM,0.164
same,relative viability,MLN4924 + Decitabine; first compound 4 µM,0.0343
LCLC-97TM1,relative viability,GSK126 + Tozasertib; first compound 0.08 µM,0.244
same,relative viability,GSK126 + Tozasertib; first compound 0.253 µM,0.223
same,relative viability,GSK126 + Tozasertib; first compound 0.8 µM,0.188
same,relative viability,GSK126 + Tozasertib; first compound 2.53 µM,0.225
same,relative viability,GSK126 + Tozasertib; first compound 8 µM,0.176
same,relative viability,MLN4924 + Palbociclib; first compound 0.04 µM,0.185
same,relative viability,MLN4924 + Palbociclib; first compound 0.1265 µM,0.114
same,relative viability,MLN4924 + Palbociclib; first compound 0.4 µM,0.0981
same,relative viability,MLN4924 + Palbociclib; first compound 1.265 µM,0.0625
same,relative viability,MLN4924 + Palbociclib; first compound 4 µM,0.0723
same,relative viability,MLN4924 + Alpelisib; first compound 0.04 µM,0.255
same,relative viability,MLN4924 + Alpelisib; first compound 0.1265 µM,0.208
same,relative viability,MLN4924 + Alpelisib; first compound 0.4 µM,0.129
same,relative viability,MLN4924 + Alpelisib; first compound 1.265 µM,0.114
same,relative viability,MLN4924 + Alpelisib; first compound 4 µM,0.119
same,relative viability,MLN4924 + Decitabine; first compound 0.04 µM,0.188
same,relative viability,MLN4924 + Decitabine; first compound 0.1265 µM,0.156
same,relative viability,MLN4924 + Decitabine; first compound 0.4 µM,0.133
same,relative viability,MLN4924 + Decitabine; first compound 1.265 µM,0.0597
same,relative viability,MLN4924 + Decitabine; first compound 4 µM,0.0565
NCI-H2405,relative viability,GSK126 + Tozasertib; first compound 0.08 µM,0.767
same,relative viability,GSK126 + Tozasertib; first compound 0.253 µM,0.71
same,relative viability,GSK126 + Tozasertib; first compound 0.8 µM,0.752
same,relative viability,GSK126 + Tozasertib; first compound 2.53 µM,0.697
same,relative viability,GSK126 + Tozasertib; first compound 8 µM,0.608
same,relative viability,MLN4924 + Palbociclib; first compound 0.04 µM,0.516
same,relative viability,MLN4924 + Palbociclib; first compound 0.1265 µM,0.456
same,relative viability,MLN4924 + Palbociclib; first compound 0.4 µM,0.41
same,relative viability,MLN4924 + Palbociclib; first compound 1.265 µM,0.22
same,relative viability,MLN4924 + Palbociclib; first compound 4 µM,0.252
same,relative viability,MLN4924 + Alpelisib; first compound 0.04 µM,1.02
same,relative viability,MLN4924 + Alpelisib; first compound 0.1265 µM,0.933
same,relative viability,MLN4924 + Alpelisib; first compound 0.4 µM,0.517
same,relative viability,MLN4924 + Alpelisib; first compound 1.265 µM,0.196
same,relative viability,MLN4924 + Alpelisib; first compound 4 µM,0.215
same,relative viability,MLN4924 + Decitabine; first compound 0.04 µM,0.659
same,relative viability,MLN4924 + Decitabine; first compound 0.1265 µM,0.483
same,relative viability,MLN4924 + Decitabine; first compound 0.4 µM,0.406
same,relative viability,MLN4924 + Decitabine; first compound 1.265 µM,0.28
same,relative viability,MLN4924 + Decitabine; first compound 4 µM,0.28
NCI-H1915,relative viability,GSK126 + Tozasertib; first compound 0.08 µM,0.486
same,relative viability,GSK126 + Tozasertib; first compound 0.253 µM,0.436
same,relative viability,GSK126 + Tozasertib; first compound 0.8 µM,0.447
same,relative viability,GSK126 + Tozasertib; first compound 2.53 µM,0.438
same,relative viability,GSK126 + Tozasertib; first compound 8 µM,0.415
same,relative viability,MLN4924 + Palbociclib; first compound 0.04 µM,0.501
same,relative viability,MLN4924 + Palbociclib; first compound 0.1265 µM,0.396
same,relative viability,MLN4924 + Palbociclib; first compound 0.4 µM,0.389
same,relative viability,MLN4924 + Palbociclib; first compound 1.265 µM,0.161
same,relative viability,MLN4924 + Palbociclib; first compound 4 µM,0.121
same,relative viability,MLN4924 + Alpelisib; first compound 0.04 µM,1.03
same,relative viability,MLN4924 + Alpelisib; first compound 0.1265 µM,0.865
same,relative viability,MLN4924 + Alpelisib; first compound 0.4 µM,0.892
same,relative viability,MLN4924 + Alpelisib; first compound 1.265 µM,0.216
same,relative viability,MLN4924 + Alpelisib; first compound 4 µM,0.17
same,relative viability,MLN4924 + Decitabine; first compound 0.04 µM,0.271
same,relative viability,MLN4924 + Decitabine; first compound 0.1265 µM,0.262
same,relative viability,MLN4924 + Decitabine; first compound 0.4 µM,0.235
same,relative viability,MLN4924 + Decitabine; first compound 1.265 µM,0.202
same,relative viability,MLN4924 + Decitabine; first compound 4 µM,0.142
NCI-H650,relative viability,GSK126 + Tozasertib; first compound 0.08 µM,0.783
same,relative viability,GSK126 + Tozasertib; first compound 0.253 µM,0.744
same,relative viability,GSK126 + Tozasertib; first compound 0.8 µM,0.702
same,relative viability,GSK126 + Tozasertib; first compound 2.53 µM,0.691
same,relative viability,GSK126 + Tozasertib; first compound 8 µM,0.717
same,relative viability,MLN4924 + Palbociclib; first compound 0.04 µM,0.307
same,relative viability,MLN4924 + Palbociclib; first compound 0.1265 µM,0.182
same,relative viability,MLN4924 + Palbociclib; first compound 0.4 µM,0.159
same,relative viability,MLN4924 + Palbociclib; first compound 1.265 µM,0.136
same,relative viability,MLN4924 + Palbociclib; first compound 4 µM,0.166
same,relative viability,MLN4924 + Alpelisib; first compound 0.04 µM,1.06
same,relative viability,MLN4924 + Alpelisib; first compound 0.1265 µM,0.513
same,relative viability,MLN4924 + Alpelisib; first compound 0.4 µM,0.339
same,relative viability,MLN4924 + Alpelisib; first compound 1.265 µM,0.204
same,relative viability,MLN4924 + Alpelisib; first compound 4 µM,0.232
same,relative viability,MLN4924 + Decitabine; first compound 0.04 µM,0.272
same,relative viability,MLN4924 + Decitabine; first compound 0.1265 µM,0.253
same,relative viability,MLN4924 + Decitabine; first compound 0.4 µM,0.201
same,relative viability,MLN4924 + Decitabine; first compound 1.265 µM,0.167
same,relative viability,MLN4924 + Decitabine; first compound 4 µM,0.165
HCC-44,relative viability,GSK126 + Tozasertib; first compound 0.08 µM,0.942
same,relative viability,GSK126 + Tozasertib; first compound 0.253 µM,0.877
same,relative viability,GSK126 + Tozasertib; first compound 0.8 µM,0.88
same,relative viability,GSK126 + Tozasertib; first compound 2.53 µM,0.983
same,relative viability,GSK126 + Tozasertib; first compound 8 µM,0.897
same,relative viability,MLN4924 + Palbociclib; first compound 0.04 µM,1
same,relative viability,MLN4924 + Palbociclib; first compound 0.1265 µM,0.756
same,relative viability,MLN4924 + Palbociclib; first compound 0.4 µM,0.793
same,relative viability,MLN4924 + Palbociclib; first compound 1.265 µM,0.636
same,relative viability,MLN4924 + Palbociclib; first compound 4 µM,0.45
same,relative viability,MLN4924 + Alpelisib; first compound 0.04 µM,0.7
same,relative viability,MLN4924 + Alpelisib; first compound 0.1265 µM,0.347
same,relative viability,MLN4924 + Alpelisib; first compound 0.4 µM,0.162
same,relative viability,MLN4924 + Alpelisib; first compound 1.265 µM,0.15
same,relative viability,MLN4924 + Alpelisib; first compound 4 µM,0.134
same,relative viability,MLN4924 + Decitabine; first compound 0.04 µM,0.874
same,relative viability,MLN4924 + Decitabine; first compound 0.1265 µM,0.85
same,relative viability,MLN4924 + Decitabine; first compound 0.4 µM,0.582
same,relative viability,MLN4924 + Decitabine; first compound 1.265 µM,0.421
same,relative viability,MLN4924 + Decitabine; first compound 4 µM,0.399
NCI-H2087,relative viability,GSK126 + Tozasertib; first compound 0.08 µM,0.23
same,relative viability,GSK126 + Tozasertib; first compound 0.253 µM,0.222
same,relative viability,GSK126 + Tozasertib; first compound 0.8 µM,0.214
same,relative viability,GSK126 + Tozasertib; first compound 2.53 µM,0.202
same,relative viability,GSK126 + Tozasertib; first compound 8 µM,0.258
same,relative viability,MLN4924 + Palbociclib; first compound 0.04 µM,0.184
same,relative viability,MLN4924 + Palbociclib; first compound 0.1265 µM,0.184
same,relative viability,MLN4924 + Palbociclib; first compound 0.4 µM,0.19
same,relative viability,MLN4924 + Palbociclib; first compound 1.265 µM,0.0803
same,relative viability,MLN4924 + Palbociclib; first compound 4 µM,0.093
same,relative viability,MLN4924 + Alpelisib; first compound 0.04 µM,1.13
same,relative viability,MLN4924 + Alpelisib; first compound 0.1265 µM,0.815
same,relative viability,MLN4924 + Alpelisib; first compound 0.4 µM,0.381
same,relative viability,MLN4924 + Alpelisib; first compound 1.265 µM,0.178
same,relative viability,MLN4924 + Alpelisib; first compound 4 µM,0.136
same,relative viability,MLN4924 + Decitabine; first compound 0.04 µM,0.197
same,relative viability,MLN4924 + Decitabine; first compound 0.1265 µM,0.248
same,relative viability,MLN4924 + Decitabine; first compound 0.4 µM,0.253
same,relative viability,MLN4924 + Decitabine; first compound 1.265 µM,0.0811
same,relative viability,MLN4924 + Decitabine; first compound 4 µM,0.061

# Source: the supplement of paper PMC10307832
